Data published in patent US9914722B2, “Compounds for treating spinal muscular atrophy” (PTC Therapeutics Inc., priority 2012, dated 2018).

Test system: SMN2 full length and Δ7 mRNA
Test: Endogenous SMN2 mRNA RT-qPCR splicing assay in cultured cells
Format: cell-based, human
Settings: 24 hr, FIG. 4
Method: Endogenous SMN2 mRNA RT-qPCR Splicing Assay in Cultured Cells
The reverse transcription-quantitative PCR-based (RT-qPCR) assay is used to quantify the levels of the SMN2 full length and Δ7 mRNA in primary cells and cell lines containing the SMN2 gene treated with a test compound.
Protocol. GM03813 SMA patient cells (5,000 cells/well) are seeded in 200 μL, of cell culture medium (DMEM plus 10% FBS) in 96-well flat-bottom plates and the plate is immediately swirled to ensure proper dispersal of cells, forming an even monolayer of cells. Cells are allowed to attach for at least 4-6 hrs. Test compounds are serially diluted 3.16-fold in 100% DMSO to generate a 7-point concentration curve. A solution of test compound (1 μL, 200× in DMSO) is added to each test well and 1 μL, DMSO is added to each control well. The plate is incubated for 24 hrs in a cell culture incubator (37° C., 5% CO2, 100% relative humidity). The cells are then lysed in Cells-To-Ct lysis buffer and the lysate is stored at −80° C.
SMN2-specific spliced products and GAPDH mRNA are identified using the following primers and probes in Table 5. […] Since the SMA patient cells used in Example 3 contain only the SMN2 gene, RT-qPCR can quantify only SMN2 full-length and Δ7 mRNA. […]
The increase of SMN2 FL and decrease in SMN2 Δ7 mRNA relative to those in cells treated with vehicle control are determined from real-time PCR data using a modified ΔΔCt method (as described in Livak and Schmittgen, Methods, 2001, 25:402-8). The amplification efficiency (E) is calculated from the slope of the amplification curve for SMN2 FL, SMN2 Δ7, and GAPDH individually. The abundance of SMN2 FL, SMN2 Δ7 and GAPDH mRNA are then calculated as (1+E)^−Ct, where Ct is the threshold value for each amplicon. […]

[1] = GM03813 Type 1 SMA patient fibroblasts, increasing concentrations

`COc1ccc(-c2cc(=O)c3cc(N4CCN[C@@H](C)C4)ccc3o2)cc1F` [Cpd 38, 2-(3-fluoro-4-methoxyphenyl)-6-[(3S)-3-methylpiperazin-1-yl]-4H-chromen-4-one] was tested, and the “SMN2 FL mRNA relative to vehicle” value [1] was “progressively more SMN2 FL mRNA”, the “SMN2 Δ7 mRNA relative to vehicle” value [1] was “less SMN2 Δ7 mRNA” and the SMN2 alternative splicing (Type 1 SMA patient fibroblasts, rising concentrations) was “correction of SMN2 alternative splicing”.
